In US12466829B2, “Spirocyclic piperidine melanocortin subtype-2 receptor (MC2R) antagonists and uses thereof” (Crinetics Pharmaceuticals, Inc., priority 2019, dated 2025) one finds Ki data, which are given here for 24 compounds.

T1 sequence (Q01718 whole entry): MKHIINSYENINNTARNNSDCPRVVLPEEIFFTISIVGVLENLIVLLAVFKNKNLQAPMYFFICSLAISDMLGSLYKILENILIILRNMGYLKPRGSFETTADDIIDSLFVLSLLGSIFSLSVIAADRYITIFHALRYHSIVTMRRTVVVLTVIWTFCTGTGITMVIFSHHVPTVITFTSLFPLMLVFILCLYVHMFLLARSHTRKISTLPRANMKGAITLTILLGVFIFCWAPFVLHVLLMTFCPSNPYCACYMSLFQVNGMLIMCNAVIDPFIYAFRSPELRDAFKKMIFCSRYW
T1 sequence (Q8TCY5 whole entry partner): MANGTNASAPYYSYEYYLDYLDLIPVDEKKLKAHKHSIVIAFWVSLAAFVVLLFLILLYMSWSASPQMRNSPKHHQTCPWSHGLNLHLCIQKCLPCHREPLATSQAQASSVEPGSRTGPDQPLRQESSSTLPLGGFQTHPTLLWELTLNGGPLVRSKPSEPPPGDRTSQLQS

The test addresses T1, hMC2 receptor (Homo sapiens, UniProt Q01718).
T1 construct: host or cells: CRE-bla-CHO-K1 cells
In words: hMC2 membrane binding assay ([125I]ACTH (1-39) Tyr23, SPA). As to conditions: crude membranes of CRE-bla-CHO-K1 cells expressing hMC2 receptor and hMRAP; 0.2 nM [125I]ACTH (1-39) Tyr23; 1.5 hours at room temperature; read-out: MC2R binding potency. The protocol: Crude membrane fractions are prepared from CRE-bla-CHO-K1 cells stably expressing hMC2 receptor and hMRAP accessory protein (Thermo Fisher). The cells are grown to 85-100% confluence on standard tissue culture dishes in GlutaMax DMEM growth media (Gibco) with following additives: 10% dialyzed FBS (Gemini), 0.1 mM NEAA (Gibco), 25 mM HEPES (Gibco), 5 μg/mL blasticidin (Goldbio), 100 μg/mL zeocin (Invitrogen), 600 μg/mL hygromycin (Goldbio). To prepare membranes, cells are scraped and collected in 1× Dulbecco's phosphate buffered saline (Corning) and then pelleted at 1000 RPM's. The cell pellet is reconstituted in membrane preparation buffer (20 mM HEPES, 6 mM MgCl2 and 1 mM EGTA, protease inhibitor tablets (Pierce) adjusted to pH 7.4), homogenized using a dounce homogenizer, and the resulting membrane fraction is pelleted by centrifugation at 12,000 RPM's. The membrane pellet is resuspended in membrane preparation buffer, snap freezed and stored at −80° C. for later use.
The hMC2 membrane binding assay utilizes the following components: radiolabel [^125I]ACTH (1-39) Tyr23 (PerkinElmer), wheatgerm agglutinin coated PVT SPA beads (PerkinElmer), crude hMC2R membranes, and compounds. Briefly hMC2R membranes are incubated with SPA beads in binding assay buffer (50 mM HEPES, 5 mM MgCl2, 1 mM CaCl2), 0.2% BSA, protease inhibitor tablets (Pierce) adjusted to pH7.4) prior to assay initiation. […] Assay plates are read using a Top Count NXT and Ki values for compounds are determined using a GraphPad Prism 6 non-linear regression analysis.
In the case of `CCOc1ncccc1-c1ccc2c(n1)N(C(=O)[C@@H]1CCNC1)CC21CCN(c2ccc(C(F)(F)F)cc2C#N)CC1` [1-49, 2-[6′-(2-ethoxypyridin-3-yl)-1′-[(3R)-pyrrolidine-3-carbonyl]-1′,2′-dihydrospiro[piperidine-4,3′-pyrrolo[2,3-b]pyridin]-1-yl]-5-(trifluoromethyl)benzonitrile], the Ki is under 10 nM.

As to `CCOc1ncccc1-c1ccc2c(c1)N(C(=O)CCN)CC21CCN(c2ccc(Cl)cc2C#N)CC1` [1-34, 2-[1-(3-aminopropanoyl)-6-(2-ethoxypyridin-3-yl)-1,2-dihydrospiro[indole-3,4′-piperidin]-1′-yl]-5-chlorobenzonitrile], the Ki lay in the range of 10 to 100 nM.

In the case of `CCOc1ncccc1-c1ccc2c(c1)N(C[C@H](C)N)CC21CCN(c2ccc(C(F)(F)F)cc2C#N)CC1` [1-14, 2-{1-[(2S)-2-aminopropyl]-6-(2-ethoxypyridin-3-yl)-1,2-dihydrospiro[indole-3,4′-piperidin]-1′-yl}-5-(trifluoromethyl)benzonitrile], the Ki was 10 to 100 nM. Take `CCOc1ncccc1-c1ccc2c(c1)N(C(=O)CCN)CC21CCN(c2cc(C(F)(F)F)cc(C#N)n2)CC1` [1-24, 6-[1-(3-aminopropanoyl)-6-(2-ethoxypyridin-3-yl)-1,2-dihydrospiro[indole-3,4′-piperidin]-1′-yl]-4-(trifluoromethyl)pyridine-2-carbonitrile]: the Ki is 1000 to 10000 nM. For the compound `CCOc1ncccc1-c1ccc2c(n1)N(C(=O)NCCNC)CC21CCN(c2ccc(C(F)(F)F)cc2C#N)CC1` [1-59, 1-[2-cyano-4-(trifluoromethyl)phenyl]-6′-(2-ethoxypyridin-3-yl)-N-[2-(methylamino)ethyl]-1′,2′-dihydrospiro[piperidine-4,3′-pyrrolo[2,3-b]pyridine]-1′-carboxamide], the Ki was under 10 nM.

In the case of `CCOc1ncccc1-c1ccc2c(c1)N(C(=O)C[C@@H](C)N)CC21CCN(c2ccc(C(F)(F)F)cc2C#N)CC1` [1-6, 2-{1-[(3R)-3-aminobutanoyl]-6-(2-ethoxypyridin-3-yl)-1,2-dihydrospiro[indole-3,4′-piperidin]-1′-yl}-5-(trifluoromethyl)benzonitrile], the Ki was in the range of 10 to 100 nM.

`CCOc1ncccc1-c1ccc2c(c1)N(C(=O)CCN)CC21CCN(c2cc(OC)cc(C(F)(F)F)n2)CC1` [1-36, 3-amino-1-[6-(2-ethoxypyridin-3-yl)-1′-[4-methoxy-6-(trifluoromethyl)pyridin-2-yl]-1,2-dihydrospiro[indole-3,4′-piperidin]-1-yl]propan-1-one]: the Ki was in the range of 1000 to 10000 nM.

On to `CCOc1ncccc1-c1ccc2c(c1)N(CCN)C(=O)CC21CCN(c2ccc(C(F)(F)F)cc2C#N)CC1` [1-66, 2-[1′-(2-aminoethyl)-7′-(2-ethoxypyridin-3-yl)-2′-oxo-2′,3′-dihydro-1′H-spiro[piperidine-4,4′-quinolin]-1-yl]-5-(trifluoromethyl)benzonitrile], for which the Ki lay within 10 to 100 nM.

Turning to `CCOc1ncccc1-c1ccc2c(c1)N([C@H]1CCNC1)C(=O)C21CCN(c2ccc(C(F)(F)F)cc2C#N)CC1` [1-17, 2-[6-(2-ethoxypyridin-3-yl)-2-oxo-1-[(3S)-pyrrolidin-3-yl]-1,2-dihydrospiro[indole-3,4′-piperidin]-1′-yl]-5-(trifluoromethyl)benzonitrile], the Ki fell in the range of 10 to 100 nM. Under `CCOc1ncccc1-c1ccc2c(c1)N(CCNC)C(=O)CC21CCN(c2ccc(C(F)(F)F)cc2C#N)CC1` [1-69, 2-[7′-(2-ethoxypyridin-3-yl)-1′-[2-(methylamino)ethyl]-2′-oxo-2′,3′-dihydro-1′H-spiro[piperidine-4,4′-quinolin]-1-yl]-5-(trifluoromethyl)benzonitrile] stands 10 to 100 nM; under `CCOc1ncccc1-c1ccc2c(c1)N(C(=O)CCN)CC21CCN(c2ccc(Cl)cc2C(F)(F)F)CC1` [1-22, 3-amino-1-{1′-[4-chloro-2-(trifluoromethyl)phenyl]-6-(2-ethoxypyridin-3-yl)-1,2-dihydrospiro[indole-3,4′-piperidin]-1-yl}propan-1-one], 10 to 100 nM; under `CCOc1ncccc1-c1ccc2c(c1)N(S(=O)(=O)CCN)CC21CCN(c2ccc(C(F)(F)F)cc2C#N)CC1` [1-37, 2-[1-(2-aminoethanesulfonyl)-6-(2-ethoxypyridin-3-yl)-1,2-dihydrospiro[indole-3,4′-piperidin]-1′-yl]-5-(trifluoromethyl)benzonitrile], 10 to 100 nM. Under `N#Cc1cc(C(F)(F)F)ccc1N1CCC2(CC1)CN(C(=O)CCN)c1cc(-c3ccccc3CO)ccc12` [1-35, 2-[1-(3-aminopropanoyl)-6-[2-(hydroxymethyl)phenyl]-1,2-dihydrospiro[indole-3,4′-piperidin]-1′-yl]-5-(trifluoromethyl)benzonitrile] stands 10 to 100 nM; under `CCOc1ncccc1-c1ccc2c(c1)N(C(=O)NCCN)CC21CCN(c2ccc(C(F)(F)F)cc2C#N)CC1` [1-27, N-(2-aminoethyl)-1′-[2-cyano-4-(trifluoromethyl)phenyl]-6-(2-ethoxypyridin-3-yl)-1,2-dihydrospiro[indole-3,4′-piperidine]-1-carboxamide], 10 to 100 nM; under `CCOc1ncccc1-c1ccc2c(c1)N(C(=O)N[C@H]1CCNC1)CC21CCN(c2ccc(C(F)(F)F)cc2C#N)CC1` [1-33, 1′-[2-cyano-4-(trifluoromethyl)phenyl]-6-(2-ethoxypyridin-3-yl)-N-[(3S)-pyrrolidin-3-yl]-1,2-dihydrospiro[indole-3,4′-piperidine]-1-carboxamide], 10 to 100 nM. Then `CCOc1ncccc1-c1ccc2c(c1)N(C(=O)CCN)C(C)C21CCN(c2ccc(C(F)(F)F)cc2C#N)CC1` (stereo not drawn) [1-26, 2-[1-(3-aminopropanoyl)-6-(2-ethoxypyridin-3-yl)-2-methyl-1,2-dihydrospiro[indole-3,4′-piperidin]-1′-yl]-5-(trifluoromethyl)benzonitrile], with 10 to 100 nM; and `CCOc1ncccc1-c1ccc2c(n1)N(C(=O)CCN)CC21CCN(c2ccc(C(F)(F)F)cc2C#N)CC1` [1-28, 2-[1′-(3-aminopropanoyl)-6′-(2-ethoxypyridin-3-yl)-1′,2′-dihydrospiro[piperidine-4,3′-pyrrolo[2,3-b]pyridin]-1-yl]-5-(trifluoromethyl)benzonitrile], with under 10 nM.

Turning to `CCOc1ncccc1-c1ccc2c(c1)N(C(=O)NC[C@@H](C)N)CC21CCN(c2ccc(C(F)(F)F)cc2C#N)CC1` [1-30, N-[(2R)-2-aminopropyl]-1′-[2-cyano-4-(trifluoromethyl)phenyl]-6-(2-ethoxypyridin-3-yl)-1,2-dihydrospiro[indole-3,4′-piperidine]-1-carboxamide], the Ki was 10 to 100 nM. Under `CCOc1ncccc1-c1ccc2c(c1)N(C(=O)CCN)CC21CCN(c2ccc(C(F)(F)F)cc2C#N)CC1` [1-3, 2-[1-(3-aminopropanoyl)-6-(2-ethoxypyridin-3-yl)-1,2-dihydrospiro[indole-3,4′-piperidin]-1′-yl]-5-(trifluoromethyl)benzonitrile] stands 10 to 100 nM; under `CCOc1ncccc1-c1ccc2c(n1)N(C[C@@H](C)N)C(=O)C21CCN(c2ccc(C(F)(F)F)cc2C#N)CC1` [1-61, 2-{1′-[(2R)-2-aminopropyl]-6′-(2-ethoxypyridin-3-yl)-2′-oxo-1′,2′-dihydrospiro[piperidine-4,3′-pyrrolo[2,3-b]pyridin]-1-yl}-5-(trifluoromethyl)benzonitrile], under 10 nM; under `CCOc1ncccc1-c1ccc2c(c1)N(C(=O)CCN)CC21CCN(c2ccc(C(F)(F)F)cc2Cl)CC1` [1-7, 3-amino-1-{1′-[2-chloro-4-(trifluoromethyl)phenyl]-6-(2-ethoxypyridin-3-yl)-1,2-dihydrospiro[indole-3,4′-piperidin]-1-yl}propan-1-one], 10 to 100 nM.

Turning to `CCOc1ncccc1-c1ccc2c(c1)N(C(=O)CCN)CC21CCN(c2cc(C#N)cc(C(F)(F)F)n2)CC1` [1-19, 2-[1-(3-aminopropanoyl)-6-(2-ethoxypyridin-3-yl)-1,2-dihydrospiro[indole-3,4′-piperidin]-1′-yl]-6-(trifluoromethyl)pyridine-4-carbonitrile], the Ki fell in the range of 1000 to 10000 nM. With `CCOc1ncccc1-c1ccc2c(c1)N(C[C@@H](C)N)C(=O)CC21CCN(c2ccc(C(F)(F)F)cc2C#N)CC1` [1-70, 2-{1′-[(2R)-2-aminopropyl]-7′-(2-ethoxypyridin-3-yl)-2′-oxo-2′,3′-dihydro-1′H-spiro[piperidine-4,4′-quinolin]-1-yl}-5-(trifluoromethyl)benzonitrile], the Ki was 10 to 100 nM. Take `CCOc1ncccc1-c1ccc2c(n1)N([C@@H]1CCNC1)CC21CCN(c2ccc(C(F)(F)F)cc2C#N)CC1` [1-52, 2-[6′-(2-ethoxypyridin-3-yl)-1′-[(3R)-pyrrolidin-3-yl]-1′,2′-dihydrospiro[piperidine-4,3′-pyrrolo[2,3-b]pyridin]-1-yl]-5-(trifluoromethyl)benzonitrile]: the Ki was under 10 nM.
